# Data reported in paper PMC5889910, “β-Carboline Silver Compound Binding Studies with Human Serum Albumin: A Comprehensive Multispectroscopic Analysis and Molecular Modeling Study” (Bioinorganic Chemistry and Applications, 2018).
# Legend:
# [1] = biological target: T1, human serum albumin (HSA) (Homo sapiens, UniProt P02768); test: Fluorescence quenching titration of HSA (Stern–Volmer analysis); assay type: binding; settings: for K SV, Stern–Volmer quenching constant: 20 mM phosphate buffer pH 7.4, 25°C, excitation 295 nm; for K q, bimolecular quenching rate constant: Kq = KSV/τ0, τ0 = 10^−8 s, 25°C; for ∆G, standard free energy change of binding: ΔG = −2.303 RT logK; for redshift at the maximal emission wavelength of Tyr and Trp residues of HSA: increasing compound concentration
# T1 construct: I (residues 1–195), II (196–383), and III (384–585); purchased Sigma
# T1 sequence (P02768 25-609): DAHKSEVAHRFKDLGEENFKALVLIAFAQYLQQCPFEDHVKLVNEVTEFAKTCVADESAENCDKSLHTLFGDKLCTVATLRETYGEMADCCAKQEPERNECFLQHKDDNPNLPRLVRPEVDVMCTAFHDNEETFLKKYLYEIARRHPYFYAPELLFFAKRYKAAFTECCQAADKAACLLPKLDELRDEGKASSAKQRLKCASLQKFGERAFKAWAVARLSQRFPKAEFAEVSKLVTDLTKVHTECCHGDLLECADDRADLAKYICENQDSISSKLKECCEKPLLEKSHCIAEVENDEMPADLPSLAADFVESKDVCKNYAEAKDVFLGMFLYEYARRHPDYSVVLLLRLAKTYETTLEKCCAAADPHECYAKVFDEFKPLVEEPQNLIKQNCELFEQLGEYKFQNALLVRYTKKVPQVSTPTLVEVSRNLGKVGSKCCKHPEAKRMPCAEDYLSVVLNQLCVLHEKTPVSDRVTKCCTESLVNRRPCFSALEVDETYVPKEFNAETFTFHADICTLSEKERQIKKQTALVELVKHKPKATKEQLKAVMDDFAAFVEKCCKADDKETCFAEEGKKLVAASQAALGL
# Protocol: (§1) The samples of HSA were prepared in 20 mM phosphate buffer (pH 7.4), whereas silver complexes (1 mM) stock solution were prepared in DMSO and further diluted in 20 mM phosphate buffer to reach the desired concentration. In all the samples, the final concentration of DMSO was not more than 1%. The concentration of HSA was determined using the Beer–Lambert law with the molar extinction coefficient of 36500 M^−1·cm^−1 at 280 nm. To study structural changes in HSA by the addition of [Ag(I)(Hnor)2](anion) compounds, the UV absorption spectra were measured, by variation of the concentration of the [Ag(I)(Hnor)2](anion) compounds, while keeping the concentration of HSA constant. UV absorption spectra, from 240 nm to 320 nm, were recorded on a Perkin–Elmer Lambda 45 spectrophotometer at 25°C. Quartz cuvettes of 1 cm path length were used for the measurements. Fluorescence measurements were performed on a Hitachi spectrofluorometer (Model F 7000) equipped with a PC. The fluorescence spectra were collected at 25°C with a path length cell of 1 cm. The slit width used was 5 nm with a protein concentration of 5 µM. The used excitation wavelength for the protein was 295 nm.
# (§2) All the spectra were recorded after equilibration of the reaction mixture for 5 min.
# The interaction between metal compounds and proteins has been widely investigated by using fluorescence spectroscopies. The luminescence response of HSA, upon addition of different concentrations of Ag(I) compounds, was studied in 20 mM phosphate buffer by using an emission titration experiment. Preliminary luminescence studies of the four starting Ag compounds 1–4 have been reported earlier by some of us. The excitation at 290 nm for all four compound results in a strong luminescence band at around 370 nm. The fluorescence studies of the ligand “Hnor” as well as the free silver salt, “AgNO3,” were also studied under the same conditions to compare the effect of separate entities with a combination of the two. Upon excitation at 295 nm, fluorescence intensity around 340 nm is known to reflect the changes of the tryptophan residue microenvironment. […] In Figure S3, similar data are presented for compounds 2–4, with only marginal differences upon anion variation.
# The interaction of the Ag compounds with HSA was quantified; the Stern–Volmer equation has been employed:(1) F0/F=1+KSVQ=1+Kqτ0Q, where F 0 and F are the steady-state fluorescence intensities in the absence and presence of quencher at 340 nm, respectively. K sv is the Stern–Volmer quenching constant, K q stands for bimolecular quenching constant, τ 0 is the lifetime of the fluorophore in the absence of quencher, and [Q] is the concentration of quencher (i.e., the Ag compound). By calculating the quenching rate constants, K q, one can distinguish between the static quenching and the dynamic quenching, and this was evaluated by using the following equation:(2) Kq=KSV/τ0.
# The value of tau(zero), τ 0, for biopolymers is known to be 10^−8 s. The Stern–Volmer quenching constant (K sv) for the fluorometric titration of the Ag(I) compounds into HSA solution was calculated from the linear relationship between F 0/F and [Ag(I)(Hnor)2]ClO4 (Figure 5) and enlisted in Table 1. In Figure S4, similar data are presented for compounds 2–4, confirming the above observations.
# The equilibrium between free and bound molecules, when small molecules bind independently to a set of similar sites on a macromolecule, was ascertained by a modified Stern–Volmer equation [42]:(3) logF0−F/F=logK+n logQ, where K and n are the binding constant and the number of binding sites, respectively. A plot of log(F 0 − F/F) versus log[Q] was used to determine the value of K and n (inset in Figure 5). Several forces, like electrostatic, hydrogen bonds, weak van der Waals, hydrophobic, and steric contacts, can be thought of being responsible for the interaction between the albumin and Ag compounds. […]
# [2] = tested on: two different cancer cell lines; design: method as in PMID 25042730; settings: previous study; cited from earlier work
# [3] = biological target: T1, human serum albumin (HSA); test: Fluorescence quenching of HSA with addition of extra anions (KClO4, KNO3); assay type: binding; settings: for K SV / K, binding constant / n, number of binding sites: HSA 5 µM; for effect of anion salt alone on HSA structure: without Ag and Hnor, up to the concentration maximum used in the experiments
# Protocol: as §1
# Given the fact that the highest anticancer activity and also the most substantial HSA interaction takes place in case of the perchlorate and nitrate salts, it was decided to add extra perchlorate (and also nitrate) for all cases and to study the effect on the binding affinity. So, we carried out two sets of experiments and studied the binding propensity of Ag(I) compounds with HSA. In one experiment, the extra ClO4 ^− anion was added in a 1 : 4 ratio, compared to the Ag compound. In a second experiment, we used additional nitrate together with the Ag(I) compounds. Details are given in Figures 6 and 7, and the quite similar details for the other 3 compounds are presented in Figures S5 and S6 in Supplementary Materials.
# To determine the role of only the anions (i.e., without Ag and Hnor), we also used KClO4 and KNO3 and studied their HSA binding by adding variable amounts of anions to the concentration maximum used in the experiments. […] When the extra anions + compounds were titrated, the results obtained did show an exponential increase in binding affinity of the Ag(I) compounds.
# The binding strength was evaluated by calculating the Stern–Volmer constant (K sv), a number of the binding sites (n) and Gibbs free energy (ΔG); (Table 2). […] However, no correlation with the size of these four anions is seen.
# [4] = biological target: T1, human serum albumin (HSA); test: Far-UV circular dichroism of HSA, α-helix content; assay type: binding; design: unit of the concentration uncertain; settings: HSA 20 µM, free HSA 67.03
# Protocol: CD measurements were carried out on a Jasco spectropolarimeter (Model J-815) equipped with a microcomputer. The instrument was calibrated with D-10-camphorsulfonic acid. All the CD measurements were performed at 25°C with a thermostatically controlled cell holder, attached to a Neslab RTE-110 water bath with an accuracy of ±0.1°C. Spectra were collected with a scan speed of […] and a response time of 1 s. Each spectrum was taken as the average of three scans. The far-UV CD spectra were measured at a protein concentration of 20 µM at a path length of 1 cm.
# as §2
# The CD signal, expressed in millidegree, obtained over the wavelength range of 190–250 nm, was converted to a mean residue ellipticity (MRE, θ), using the following conversion:(5) MRE=θobs mdeg/10×n×Cp×l, where θ obs is the CD in millidegree, the number of amino acid residues (585) is given by n, “l” is the path length (cm), and C p is the molarity. The unit of MRE is deg·cm^2·dmol^−1.
# [5] = biological target: T1, human serum albumin (HSA); test: UV absorption spectra of HSA with Ag(I) compounds; assay type: binding; settings: HSA 5 µM, with hyperchromism
# Protocol: as §1, §2
# [6] = modified Stern–Volmer equation, HSA 5 µM, pH 7.4, 25°C
# [7] = Set A: +extra ClO4− (KClO4, 1:4 ratio)
# [8] = Set B: +extra NO3− (KNO3, 1:4 ratio)
# [9] = compound concentration 20 (unit uncertain)
# [10] = compound concentration 40 (unit uncertain)
# [11] = compound concentration 60 (unit uncertain)
# [12] = compound concentration 80 (unit uncertain)
# [13] = compound concentration 100 (unit uncertain)
SMILES,"K SV, Stern–Volmer quenching constant ([1]; HSA 5 µM)","K q, bimolecular quenching rate constant ([1]; HSA 5 µM)","K, binding constant [1, 6]","n, number of binding sites [1, 6]","∆G, standard free energy change of binding [1]","K SV [3, 7]","K, binding constant [3, 7]","n, number of binding sites [3, 7]","∆G [3, 8]","K SV [3, 8]","K, binding constant [3, 8]","n, number of binding sites [3, 8]","% α-helix of HSA [4, 9]","% α-helix of HSA [4, 10]","% α-helix of HSA [4, 11]","% α-helix of HSA [4, 12]","% α-helix of HSA [4, 13]",redshift at the maximal emission wavelength of Tyr and Trp residues of HSA ([1]; HSA 5 µM),redshift (bathochromic effect) of HSA UV absorbance [5],further results
"O=[N+]([O-])[O-].[Ag+] [AgNO3, reference compound]",3.10 10^5 M^−1,31.0 10^12 M^−1·s^−1,1.94 10^6 M^−1,1.1,-8.576 kcal/mol,,,,,,,,,,,,,,,
"[Ag+].[O-][Cl+3]([O-])([O-])[O-].c1ccc2c(c1)[nH]c1cnccc12.c1ccc2c(c1)[nH]c1cnccc12 [Compound 1, [Ag(Hnor)2](ClO4)]",5.37 10^5 M^−1,53.7 10^12 M^−1·s^−1,3.74 10^6 M^−1,1.1,-8.963 kcal/mol,2.21 10^7 M^−1,17.2 10^10 M^−1,1.77,-14.4 kcal/mol,2.06 10^7 M^−1,3.64 10^10 M^−1,1.64,64.07%,62.23%,58.59%,50.18%,35.63%,7 nm,7 nm,"anticancer activity [2]: comparable to cisplatin; ∆G [3, 7]: -15.33 kcal/mol"
"O=[N+]([O-])[O-].[Ag+].c1ccc2c(c1)[nH]c1cnccc12.c1ccc2c(c1)[nH]c1cnccc12 [Compound 2, [Ag(Hnor)2](NO3)]",5.34 10^5 M^−1,53.4 10^12 M^−1·s^−1,3.64 10^6 M^−1,1.0,-8.948 kcal/mol,1.29 10^7 M^−1,6.05 10^10 M^−1,1.58,-13.4 kcal/mol,1.24 10^7 M^−1,0.66 10^10 M^−1,1.53,62.85%,61.61%,58.41%,52.02%,42.73%,5 nm,5 nm,
"CC#N.F[P-](F)(F)(F)(F)F.[Ag+].c1ccc2c(c1)[nH]c1cnccc12.c1ccc2c(c1)[nH]c1cnccc12 [Compound 3, [Ag(Hnor)2(MeCN)](PF6)]",4.53 10^5 M^−1,45.3 10^12 M^−1·s^−1,0.55 10^6 M^−1,1.2,-7.823 kcal/mol,0.84 10^7 M^−1,0.46 10^10 M^−1,1.55,-12.19 kcal/mol,0.80 10^7 M^−1,0.08 10^10 M^−1,1.41,63.57%,62.57%,60.37%,56.31%,47.18%,4 nm,5 nm,"∆G [3, 7]: -13.18 kcal/mol"
"F[B-](F)(F)F.[Ag+].c1ccc2c(c1)[nH]c1cnccc12.c1ccc2c(c1)[nH]c1cnccc12 [Compound 4, [Ag(Hnor)2](BF4)]",3.97 10^5 M^−1,39.7 10^12 M^−1·s^−1,1.14 10^6 M^−1,1.1,-8.258 kcal/mol,1.85 10^7 M^−1,1.19 10^10 M^−1,1.69,-13.07 kcal/mol,1.38 10^7 M^−1,0.38 10^10 M^−1,1.48,65.25%,63.82%,61.53%,56.66%,47.52%,4 nm,6 nm,
"c1ccc2c(c1)[nH]c1cnccc12 [Hnor, 9H-pyrido[3,4-b]indole, reference compound]",2.95 10^5 M^−1,29.5 10^12 M^−1·s^−1,,1.0,-7.505 kcal/mol,,,,,,,,,,,,,,,"Kd ([1]; modified Stern–Volmer equation, HSA 5 µM, pH 7.4, 25°C, read-out: K, binding constant (converted)): 3.03 µM"
"[K+].[O-][Cl+3]([O-])([O-])[O-] [KClO4, reference compound]",,,,,,,,,,,,,,,,,,,,effect of anion salt alone on HSA structure [3]: negligible perturbance of the HSA structure
"O=[N+]([O-])[O-].[K+] [KNO3, reference compound]",,,,,,,,,,,,,,,,,,,,effect of anion salt alone on HSA structure [3]: negligible perturbance of the HSA structure
